Experiments:
Format in all cases: cell-based
human TLR9 = molecular target: T1, human TLR9 (Homo sapiens, UniProt Q9NR96); test: TLR9 inhibition reporter assay (HEK-Blue SEAP); settings: HEK-Blue cells overexpressing human TLR9, stimulated with ODN2006 5 nM, 22 hour incubation
T1 construct: host or cells: HEK-Blue cells
T1 sequence (Q9NR96 26-1032): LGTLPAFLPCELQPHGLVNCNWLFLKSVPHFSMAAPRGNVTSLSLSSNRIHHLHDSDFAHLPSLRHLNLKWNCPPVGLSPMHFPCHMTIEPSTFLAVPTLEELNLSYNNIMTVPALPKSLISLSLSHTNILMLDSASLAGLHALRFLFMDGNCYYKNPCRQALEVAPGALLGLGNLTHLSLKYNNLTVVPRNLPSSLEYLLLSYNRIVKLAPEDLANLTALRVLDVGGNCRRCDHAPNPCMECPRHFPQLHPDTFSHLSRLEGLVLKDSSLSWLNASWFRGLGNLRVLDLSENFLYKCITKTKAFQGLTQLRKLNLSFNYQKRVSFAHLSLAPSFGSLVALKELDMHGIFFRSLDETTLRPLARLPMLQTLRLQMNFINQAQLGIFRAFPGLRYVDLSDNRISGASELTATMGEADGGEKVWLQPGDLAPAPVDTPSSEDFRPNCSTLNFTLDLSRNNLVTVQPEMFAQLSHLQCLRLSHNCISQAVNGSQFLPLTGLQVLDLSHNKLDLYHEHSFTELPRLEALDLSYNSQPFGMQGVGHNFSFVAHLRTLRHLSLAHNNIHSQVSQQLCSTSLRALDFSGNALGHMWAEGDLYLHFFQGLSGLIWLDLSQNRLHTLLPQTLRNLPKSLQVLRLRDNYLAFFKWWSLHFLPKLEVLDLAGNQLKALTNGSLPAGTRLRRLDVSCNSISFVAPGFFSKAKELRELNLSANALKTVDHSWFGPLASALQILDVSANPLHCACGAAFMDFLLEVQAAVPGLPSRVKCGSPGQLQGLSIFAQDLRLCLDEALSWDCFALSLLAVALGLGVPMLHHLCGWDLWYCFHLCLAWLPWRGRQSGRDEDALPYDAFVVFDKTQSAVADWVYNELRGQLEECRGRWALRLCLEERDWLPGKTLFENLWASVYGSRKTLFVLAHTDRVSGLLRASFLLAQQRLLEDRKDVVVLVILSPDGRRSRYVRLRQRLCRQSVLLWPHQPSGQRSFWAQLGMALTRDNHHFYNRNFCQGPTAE
Protocol: (§1) TLR7/8/9 Inhibition Reporter Assays
(§2) HEK-Blue™-cells (Invivogen) overexpressing human TLR7, TLR8 or TLR9 receptors were used for screening inhibitors of these receptors using an inducible SEAP (secreted embryonic alkaline phosphatase) reporter gene under the control of the IFN-β minimal promoter fused to five NF-κB and AP-1-binding sites. Briefly, cells are seeded into Greiner 384 well plates (15000 cells per well for TLR7, 20.000 for TLR8 and 25,000 for TLR9) and then treated with test compounds in DMSO to yield a final dose response concentration range of 0.05 nM-50 μM. After a 30 minute compound pre-treatment at room temperature, the cells are then stimulated with a TLR7 ligand (gardiquimod at a final concentration of 7.5 μM), TLR8 ligand (R848 at a final concentration of 15.9 μM) or TLR9 ligand (ODN2006 at a final concentration of 5 nM) to activate NF-κB and AP-1 which induce the production of SEAP. After a 22 hour incubation at 37° C., 5% CO2, SEAP levels are determined with the addition of HEK-Blue™ Detection reagent (Invivogen), a cell culture medium that allows for detection of SEAP, according to manufacturer's specifications. The percent inhibition is determined as the % reduction in the HEK-Blue signal present in wells treated with agonist plus DMSO alone compared to wells treated with a known inhibitor.

human TLR7 = molecular target: T2, human TLR7 (Homo sapiens, UniProt Q9NYK1); test: TLR7 inhibition reporter assay (HEK-Blue SEAP); settings: HEK-Blue cells overexpressing human TLR7, stimulated with gardiquimod 7.5 μM, 22 hour incubation
T2 construct: host or cells: HEK-Blue cells
T2 sequence (Q9NYK1 27-1049): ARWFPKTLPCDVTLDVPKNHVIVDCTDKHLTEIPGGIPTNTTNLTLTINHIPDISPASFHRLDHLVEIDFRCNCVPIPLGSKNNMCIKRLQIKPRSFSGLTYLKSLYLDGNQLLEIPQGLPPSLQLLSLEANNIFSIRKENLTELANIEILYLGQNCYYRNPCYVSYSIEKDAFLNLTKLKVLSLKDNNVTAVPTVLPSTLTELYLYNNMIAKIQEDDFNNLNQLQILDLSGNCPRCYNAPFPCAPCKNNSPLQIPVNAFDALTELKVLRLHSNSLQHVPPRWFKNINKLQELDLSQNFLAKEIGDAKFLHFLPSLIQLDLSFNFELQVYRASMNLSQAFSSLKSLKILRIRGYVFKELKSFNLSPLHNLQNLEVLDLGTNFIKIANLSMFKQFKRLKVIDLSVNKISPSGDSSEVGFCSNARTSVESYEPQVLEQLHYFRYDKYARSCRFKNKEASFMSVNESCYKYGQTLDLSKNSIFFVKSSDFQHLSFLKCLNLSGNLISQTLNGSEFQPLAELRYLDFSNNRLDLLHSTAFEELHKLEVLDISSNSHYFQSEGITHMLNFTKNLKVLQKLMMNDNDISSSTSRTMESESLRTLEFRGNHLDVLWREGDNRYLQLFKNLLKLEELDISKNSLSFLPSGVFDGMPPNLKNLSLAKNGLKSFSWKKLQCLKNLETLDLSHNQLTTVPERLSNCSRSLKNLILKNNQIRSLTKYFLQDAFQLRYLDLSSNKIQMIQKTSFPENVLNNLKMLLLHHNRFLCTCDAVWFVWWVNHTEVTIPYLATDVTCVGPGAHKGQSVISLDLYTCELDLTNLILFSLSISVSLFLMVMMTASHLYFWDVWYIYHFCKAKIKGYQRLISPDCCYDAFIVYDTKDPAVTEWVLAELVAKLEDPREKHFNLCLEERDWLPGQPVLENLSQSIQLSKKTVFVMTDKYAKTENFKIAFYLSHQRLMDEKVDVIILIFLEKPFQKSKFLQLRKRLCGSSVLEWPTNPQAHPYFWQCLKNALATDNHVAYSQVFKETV
Protocol: as §1, §2

human TLR8 = molecular target: T3, human TLR8 (Homo sapiens, UniProt Q9NR97); test: TLR8 inhibition reporter assay (HEK-Blue SEAP); settings: HEK-Blue cells overexpressing human TLR8, stimulated with R848 15.9 μM, 22 hour incubation
T3 construct: host or cells: HEK-Blue cells
T3 sequence (Q9NR97 27-1041): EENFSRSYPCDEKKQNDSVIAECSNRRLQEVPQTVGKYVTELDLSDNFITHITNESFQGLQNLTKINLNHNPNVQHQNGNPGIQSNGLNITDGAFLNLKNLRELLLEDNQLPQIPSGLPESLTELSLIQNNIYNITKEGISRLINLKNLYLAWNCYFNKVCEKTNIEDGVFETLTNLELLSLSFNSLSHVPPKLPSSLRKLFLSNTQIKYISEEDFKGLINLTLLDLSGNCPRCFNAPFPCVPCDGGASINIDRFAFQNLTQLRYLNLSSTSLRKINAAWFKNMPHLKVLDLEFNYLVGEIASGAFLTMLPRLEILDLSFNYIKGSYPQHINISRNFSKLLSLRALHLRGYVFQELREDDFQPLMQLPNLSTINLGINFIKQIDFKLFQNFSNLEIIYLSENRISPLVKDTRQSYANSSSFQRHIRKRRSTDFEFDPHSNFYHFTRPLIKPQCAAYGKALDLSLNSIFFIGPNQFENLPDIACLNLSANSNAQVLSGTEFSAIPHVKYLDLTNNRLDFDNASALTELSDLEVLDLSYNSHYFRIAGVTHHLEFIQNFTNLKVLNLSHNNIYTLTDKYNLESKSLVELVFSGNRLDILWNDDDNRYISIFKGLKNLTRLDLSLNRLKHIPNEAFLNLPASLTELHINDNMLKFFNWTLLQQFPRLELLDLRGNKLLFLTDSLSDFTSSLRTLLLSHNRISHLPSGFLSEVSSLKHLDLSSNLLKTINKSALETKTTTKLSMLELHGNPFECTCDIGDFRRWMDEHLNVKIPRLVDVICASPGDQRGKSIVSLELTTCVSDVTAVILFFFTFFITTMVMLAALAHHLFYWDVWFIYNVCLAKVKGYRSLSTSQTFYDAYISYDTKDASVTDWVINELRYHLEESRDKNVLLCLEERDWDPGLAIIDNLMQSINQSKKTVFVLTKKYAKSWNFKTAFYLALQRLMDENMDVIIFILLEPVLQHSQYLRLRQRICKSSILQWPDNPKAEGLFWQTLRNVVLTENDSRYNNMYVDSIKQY
Protocol: as §1, §2

IC50 (human TLR9) [nM]	IC50 (human TLR7) [nM]	IC50 (human TLR8) [nM]	Compound
16800	3.5	5.6	Cc1cc(-c2[nH]c3ccc(OCC4CCN(C(=O)CN(C)C)CC4)cc3c2C(C)C)cn(C)c1=O [Example 97, 5-(5-((1-(dimethylglycyl)piperidin-4-yl)methoxy)-3-isopropyl-1H-indol-2-yl)-1,3-dimethylpyridin-2(1H)-one]
987	65.1	3.1	Cc1cc(-c2[nH]c3ccc(OCCN4CCCC4)cc3c2C(C)C)ccn1 [Example 166, 3-isopropyl-2-(2-methylpyridin-4-yl)-5-(2-(pyrrolidin-1-yl)ethoxy)-1H-indole]
502	2.8	2.6	Cc1cc(-c2[nH]c3ccc(OCC4CCN(C)CC4)cc3c2C(C)C)cc(C)n1 [Example 33, 2-(2,6-dimethylpyridin-4-yl)-3-isopropyl-5-((1-methylpiperidin-4-yl)methoxy)-1H-indole]
58	6	0.6	Cc1cc(-c2[nH]c3ccc(OC4CCN(C5CCN(C(C)C)CC5)CC4)cc3c2C(C)C)ccn1 [Example 195, 3-isopropyl-5-((1′-isopropyl-[1,4′-bipiperidin]-4-yl)oxy)-2-(2-methylpyridin-4-yl)-1H-indole]
512	131	12	CCc1c(-c2ccnc(C)c2)[nH]c2ccc(OCC3CCN(C)CC3)cc12 [Example 183, 3-ethyl-5-((1-methylpiperidin-4-yl)methoxy)-2-(2-methylpyridin-4-yl)-1H-indole]
1080	11.2	1.1	Cc1cc(-c2[nH]c3ccc(OC4CCNCC4)cc3c2C(C)C)ccn1 [Example 164, 3-isopropyl-2-(2-methylpyridin-4-yl)-5-(piperidin-4-yloxy)-1H-indole]
9840	4.1	10.4	Cc1cc(-c2[nH]c3ccc(OC4CCN(C(=O)CN(C)C)CC4)cc3c2C(C)C)cn(C)c1=O [Example 100, 5-(5-((1-(dimethylglycyl)piperidin-4-yl)oxy)-3-isopropyl-1H-indol-2-yl)-1,3-dimethylpyridin-2(1H)-one]
884	15.1	6.4	Cc1cc(-c2[nH]c3ccc(O[C@@H]4CCN(C)C4)cc3c2C(C)C)ccn1 [Example 193, (R)-3-isopropyl-2-(2-methylpyridin-4-yl)-5-((1-methylpyrrolidin-3-yl)oxy)-1H-indole]
1560	2.9	50.2	Cc1c(-c2[nH]c3ccc(OC4CCN(C(=O)CN(C)C)CC4)cc3c2C(C)C)cn2cnnc2c1C [Example 105, 1-(4-((2-(7,8-dimethyl-[1,2,4]triazolo[4,3-a]pyridin-6-yl)-3-isopropyl-1H-indol-5-yl)oxy)piperidin-1-yl)-2-(dimethylamino)ethan-1-one]
	257	3.9	Cc1cc(-c2[nH]c3ccc(OC4CCN(CCC(F)(F)F)CC4)cc3c2C(C)C)ccn1 [Example 187, 3-isopropyl-2-(2-methylpyridin-4-yl)-5-((1-(3,3,3-trifluoropropyl)piperidin-4-yl)oxy)-1H-indole]
1810		2.6	COc1cc(-c2[nH]c3ccc(OC4CCN(CC(=O)N(C)C)CC4)cc3c2C(C)C)cn2ncnc12 [Example 93, 2-(4-((3-isopropyl-2-(8-methoxy-[1,2,4]triazolo[1,5-a]pyridin-6-yl)-1H-indol-5-yl)oxy)piperidin-1-yl)-N,N-dimethylacetamide]
> 50000			Cc1cc(-c2[nH]c3ccc(OCc4c[nH]cn4)cc3c2C(C)C)ccn1 [Example 178, 5-((1H-imidazol-4-yl)methoxy)-3-isopropyl-2-(2-methylpyridin-4-yl)-1H-indole]
13600			Cc1cc(-c2[nH]c3ccc(OCc4c[nH]cn4)cc3c2C(C)C)ccn1 [Example 176, 5-((1H-imidazol-4-yl)methoxy)-3-isopropyl-2-(2-methylpyridin-4-yl)-1H-indole]
	39.7	8.6	CNC(=O)CN1CCC(Oc2ccc3[nH]c(-c4cn(C)c(=O)c(C)c4C)c(C(C)C)c3c2)CC1 [Example 115, 2-(4-((3-isopropyl-2-(1,4,5-trimethyl-6-oxo-1,6-dihydropyridin-3-yl)-1H-indol-5-yl)oxy)piperidin-1-yl)-N-methylacetamide]

Reference: US12030878B2 (BRISTOL-MYERS SQUIBB COMPANY, priority 2017, dated 2024)
